Source: PMC9030254, “Target Hopping from Protein Kinases to PXR: Identification of Small-Molecule Protein Kinase Inhibitors as Selective Modulators of Pregnane X Receptor from TüKIC Library” (Cells, 2022)

What was measured:
Assay in all cases: Kinase profiling
Format in all cases: biochemical
CDK19/CycC = target: T1, CDK19/CycC (Homo sapiens, UniProt Q9BWU1)
T1 construct: purchased ProQinase (Freiburg, Germany)
Protocol: (§1) The analysis was performed by ProQinase (Freiburg, Germany).

CDK6/CycD3 = target: T2, CDK6/CycD3 (Homo sapiens, UniProt Q00534)
T2 construct: purchased ProQinase (Freiburg, Germany)
T2 sequence (Q00534 whole entry): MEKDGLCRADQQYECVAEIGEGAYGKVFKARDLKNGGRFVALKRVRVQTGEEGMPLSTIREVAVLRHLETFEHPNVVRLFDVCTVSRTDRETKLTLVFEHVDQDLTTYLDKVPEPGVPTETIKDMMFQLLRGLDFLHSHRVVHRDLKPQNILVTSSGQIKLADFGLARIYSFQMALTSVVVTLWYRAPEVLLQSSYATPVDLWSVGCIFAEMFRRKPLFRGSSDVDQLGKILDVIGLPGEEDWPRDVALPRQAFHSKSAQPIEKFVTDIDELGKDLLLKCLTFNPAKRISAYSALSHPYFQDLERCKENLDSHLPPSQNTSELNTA
T2 sequence (P30281 whole entry partner): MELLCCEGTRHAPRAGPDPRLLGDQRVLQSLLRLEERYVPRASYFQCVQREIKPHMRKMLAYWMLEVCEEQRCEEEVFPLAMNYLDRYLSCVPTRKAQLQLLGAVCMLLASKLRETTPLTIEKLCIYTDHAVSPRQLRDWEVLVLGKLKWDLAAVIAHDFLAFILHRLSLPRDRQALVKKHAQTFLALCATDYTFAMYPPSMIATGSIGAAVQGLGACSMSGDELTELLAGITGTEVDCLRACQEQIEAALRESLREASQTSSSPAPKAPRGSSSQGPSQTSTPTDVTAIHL
Protocol: as §1

PKCbeta1 = target: T3, PKCbeta1 (Homo sapiens, UniProt P05771)
T3 construct: purchased ProQinase (Freiburg, Germany)
T3 sequence (P05771 whole entry): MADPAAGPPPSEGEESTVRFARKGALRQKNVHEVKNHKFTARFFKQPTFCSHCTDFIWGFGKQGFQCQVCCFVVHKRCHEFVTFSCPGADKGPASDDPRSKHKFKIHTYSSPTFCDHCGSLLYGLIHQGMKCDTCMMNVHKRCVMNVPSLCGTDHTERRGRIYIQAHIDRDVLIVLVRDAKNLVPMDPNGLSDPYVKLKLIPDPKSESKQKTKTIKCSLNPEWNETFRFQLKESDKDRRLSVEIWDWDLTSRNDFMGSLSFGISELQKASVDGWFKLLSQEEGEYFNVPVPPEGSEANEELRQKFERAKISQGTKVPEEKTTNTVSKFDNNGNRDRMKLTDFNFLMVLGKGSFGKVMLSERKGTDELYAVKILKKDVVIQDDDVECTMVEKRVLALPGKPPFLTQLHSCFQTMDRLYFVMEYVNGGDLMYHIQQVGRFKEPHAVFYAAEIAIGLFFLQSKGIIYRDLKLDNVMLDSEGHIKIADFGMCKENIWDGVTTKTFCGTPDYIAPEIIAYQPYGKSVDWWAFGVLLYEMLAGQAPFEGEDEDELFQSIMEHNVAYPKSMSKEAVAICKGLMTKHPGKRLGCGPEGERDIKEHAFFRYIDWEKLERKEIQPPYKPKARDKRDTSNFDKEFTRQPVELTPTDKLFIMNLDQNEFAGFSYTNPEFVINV
Protocol: as §1

PKCnu = target: T4, PKCnu (Homo sapiens, UniProt O94806)
T4 construct: purchased ProQinase (Freiburg, Germany)
T4 sequence (O94806 1-890): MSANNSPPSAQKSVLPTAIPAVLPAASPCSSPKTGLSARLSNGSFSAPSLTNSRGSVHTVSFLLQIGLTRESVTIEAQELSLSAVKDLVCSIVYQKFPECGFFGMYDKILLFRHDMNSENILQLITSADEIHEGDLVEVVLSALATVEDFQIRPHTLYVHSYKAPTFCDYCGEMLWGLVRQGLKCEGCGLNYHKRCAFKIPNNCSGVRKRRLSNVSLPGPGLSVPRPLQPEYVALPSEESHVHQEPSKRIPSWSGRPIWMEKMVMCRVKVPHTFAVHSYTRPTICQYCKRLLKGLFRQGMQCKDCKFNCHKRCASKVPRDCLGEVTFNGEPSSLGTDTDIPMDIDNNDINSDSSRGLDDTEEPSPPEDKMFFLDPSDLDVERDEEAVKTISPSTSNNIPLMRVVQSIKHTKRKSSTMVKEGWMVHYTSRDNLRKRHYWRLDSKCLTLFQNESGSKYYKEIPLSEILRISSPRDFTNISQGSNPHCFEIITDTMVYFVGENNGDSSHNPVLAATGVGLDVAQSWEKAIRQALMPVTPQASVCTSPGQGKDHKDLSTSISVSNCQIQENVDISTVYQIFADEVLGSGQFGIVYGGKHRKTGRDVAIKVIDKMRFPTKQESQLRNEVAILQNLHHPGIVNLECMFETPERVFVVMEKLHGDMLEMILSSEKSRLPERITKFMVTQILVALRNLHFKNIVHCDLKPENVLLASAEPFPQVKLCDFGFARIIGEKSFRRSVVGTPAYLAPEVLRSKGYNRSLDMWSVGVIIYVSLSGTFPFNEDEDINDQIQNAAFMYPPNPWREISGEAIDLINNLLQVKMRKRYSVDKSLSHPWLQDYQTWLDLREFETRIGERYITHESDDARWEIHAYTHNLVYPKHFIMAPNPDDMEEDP
Protocol: as §1

S6K = target: T5, S6K (Homo sapiens, UniProt P23443)
T5 construct: purchased ProQinase (Freiburg, Germany)
T5 sequence (P23443 whole entry): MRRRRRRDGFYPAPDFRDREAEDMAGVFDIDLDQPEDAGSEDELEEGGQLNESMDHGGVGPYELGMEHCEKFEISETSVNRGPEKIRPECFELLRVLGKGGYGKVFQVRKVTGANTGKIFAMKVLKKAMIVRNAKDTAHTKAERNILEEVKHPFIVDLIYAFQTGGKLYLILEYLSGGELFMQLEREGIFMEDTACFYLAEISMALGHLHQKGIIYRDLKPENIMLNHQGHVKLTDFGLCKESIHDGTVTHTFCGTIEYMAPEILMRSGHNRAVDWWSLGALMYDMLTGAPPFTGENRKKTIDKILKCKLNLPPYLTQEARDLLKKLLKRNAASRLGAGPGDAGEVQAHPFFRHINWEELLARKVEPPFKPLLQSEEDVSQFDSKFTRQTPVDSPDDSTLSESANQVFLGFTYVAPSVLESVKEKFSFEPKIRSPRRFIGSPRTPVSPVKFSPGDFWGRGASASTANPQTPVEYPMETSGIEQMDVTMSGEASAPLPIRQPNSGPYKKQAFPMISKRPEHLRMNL
Protocol: as §1

TSSK1 = target: T6, TSSK1 (Homo sapiens, UniProt Q9BXA7)
T6 construct: purchased ProQinase (Freiburg, Germany)
T6 sequence (Q9BXA7 1-367): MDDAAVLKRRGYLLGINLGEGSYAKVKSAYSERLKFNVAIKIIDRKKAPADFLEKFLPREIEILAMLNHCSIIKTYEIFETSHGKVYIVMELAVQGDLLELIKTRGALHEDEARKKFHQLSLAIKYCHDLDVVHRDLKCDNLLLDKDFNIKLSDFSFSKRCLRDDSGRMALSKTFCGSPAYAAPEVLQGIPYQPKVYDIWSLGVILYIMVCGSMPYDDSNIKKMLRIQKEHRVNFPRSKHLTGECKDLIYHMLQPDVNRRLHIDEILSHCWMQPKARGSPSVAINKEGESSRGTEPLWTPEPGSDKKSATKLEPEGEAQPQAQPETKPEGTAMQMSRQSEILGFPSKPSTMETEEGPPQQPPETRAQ
Protocol: as §1

TYRO3 = target: T7, TYRO3 (Homo sapiens, UniProt Q06418)
T7 construct: purchased ProQinase (Freiburg, Germany)
T7 sequence (Q06418 41-890): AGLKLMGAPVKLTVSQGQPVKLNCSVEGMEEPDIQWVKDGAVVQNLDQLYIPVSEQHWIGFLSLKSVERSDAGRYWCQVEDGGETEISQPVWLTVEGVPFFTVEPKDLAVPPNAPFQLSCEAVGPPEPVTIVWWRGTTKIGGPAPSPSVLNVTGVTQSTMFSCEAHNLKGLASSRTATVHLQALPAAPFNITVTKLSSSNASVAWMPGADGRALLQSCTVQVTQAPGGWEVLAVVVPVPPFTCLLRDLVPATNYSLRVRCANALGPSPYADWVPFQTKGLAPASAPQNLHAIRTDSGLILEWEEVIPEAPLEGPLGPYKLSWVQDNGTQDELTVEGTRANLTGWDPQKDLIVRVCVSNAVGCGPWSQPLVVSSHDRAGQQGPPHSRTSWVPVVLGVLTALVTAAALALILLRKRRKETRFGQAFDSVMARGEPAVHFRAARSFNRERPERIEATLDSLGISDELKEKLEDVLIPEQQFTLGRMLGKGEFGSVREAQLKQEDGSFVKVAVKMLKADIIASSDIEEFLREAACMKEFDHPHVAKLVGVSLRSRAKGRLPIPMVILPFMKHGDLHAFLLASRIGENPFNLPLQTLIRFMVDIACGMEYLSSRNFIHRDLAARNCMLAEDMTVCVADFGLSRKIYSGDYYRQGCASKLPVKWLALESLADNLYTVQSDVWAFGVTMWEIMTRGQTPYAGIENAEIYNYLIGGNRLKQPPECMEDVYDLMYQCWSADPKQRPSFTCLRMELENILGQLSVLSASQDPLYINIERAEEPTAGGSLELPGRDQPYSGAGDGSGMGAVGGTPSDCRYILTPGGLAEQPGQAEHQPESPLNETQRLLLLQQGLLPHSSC
Protocol: as §1

T1 sequence (Q9BWU1 whole entry): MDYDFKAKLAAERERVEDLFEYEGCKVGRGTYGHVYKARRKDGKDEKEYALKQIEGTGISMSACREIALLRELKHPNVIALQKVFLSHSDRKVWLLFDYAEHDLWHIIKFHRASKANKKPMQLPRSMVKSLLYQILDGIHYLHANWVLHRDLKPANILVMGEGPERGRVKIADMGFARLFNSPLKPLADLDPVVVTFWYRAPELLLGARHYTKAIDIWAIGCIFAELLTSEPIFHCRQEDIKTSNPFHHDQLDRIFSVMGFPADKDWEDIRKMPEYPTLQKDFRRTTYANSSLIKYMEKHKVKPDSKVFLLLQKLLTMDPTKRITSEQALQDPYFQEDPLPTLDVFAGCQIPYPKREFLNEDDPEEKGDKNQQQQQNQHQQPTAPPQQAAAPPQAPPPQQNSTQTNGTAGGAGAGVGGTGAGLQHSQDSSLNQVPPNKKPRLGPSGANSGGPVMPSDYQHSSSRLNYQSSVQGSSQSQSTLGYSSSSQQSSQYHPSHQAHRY
T1 sequence (P24863 whole entry partner): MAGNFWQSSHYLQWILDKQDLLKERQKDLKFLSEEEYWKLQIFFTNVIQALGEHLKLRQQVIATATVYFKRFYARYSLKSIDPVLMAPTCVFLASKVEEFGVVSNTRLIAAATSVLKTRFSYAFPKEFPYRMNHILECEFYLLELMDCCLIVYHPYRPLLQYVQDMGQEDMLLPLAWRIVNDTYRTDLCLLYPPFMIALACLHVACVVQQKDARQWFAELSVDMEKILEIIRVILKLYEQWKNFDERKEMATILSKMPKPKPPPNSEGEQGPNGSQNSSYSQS

**Q.** Which results are given for O=C(Nc1ccc(F)c(Nc2ccc3c(c2)CCCCC3=O)c1)c1cccc(F)c1 [Compound 109]?
**A.** Residual activity (CDK19/CycC; 1.0E-05 M): 74 % of control; Residual activity (CDK19/CycC; 1.0E-06 M): 83 % of control; Residual activity (CDK6/CycD3; 1.0E-05 M): 93 % of control; Residual activity (CDK6/CycD3; 1.0E-06 M): 87 % of control; Residual activity (PKCbeta1; 1.0E-05 M): 87 % of control; Residual activity (PKCbeta1; 1.0E-06 M): 93 % of control; Residual activity (PKCnu; 1.0E-05 M): 69 % of control; Residual activity (PKCnu; 1.0E-06 M): 88 % of control; Residual activity (S6K; 1.0E-05 M): 91 % of control; Residual activity (S6K; 1.0E-06 M): 88 % of control; Residual activity (TSSK1; 1.0E-05 M): 102 % of control; Residual activity (TSSK1; 1.0E-06 M): 102 % of control; Residual activity (TYRO3; 1.0E-05 M): 92 % of control; Residual activity (TYRO3; 1.0E-06 M): 104 % of control

**Q.** How did the Residual activity (CDK19/CycC; 1.0E-05 M) turn out when O=C(Cc1ccccc1)Nc1ccc(F)c(Nc2ccc3c(c2)CCCCC3=O)c1 [Compound 100] was run?
**A.** The Residual activity was 77 % of control.

**Q.** What about the Residual activity (CDK19/CycC; 1.0E-06 M) of the same molecule?
**A.** Its Residual activity is 81 % of control.

**Q.** And the Residual activity (CDK6/CycD3; 1.0E-05 M)?
**A.** The Residual activity was 92 % of control.

**Q.** What about the Residual activity (CDK6/CycD3; 1.0E-06 M) of the same molecule?
**A.** Its Residual activity is 90 % of control.

**Q.** And the Residual activity (PKCbeta1; 1.0E-05 M)?
**A.** The Residual activity was 92 % of control.

**Q.** What about the Residual activity (PKCbeta1; 1.0E-06 M) of the same molecule?
**A.** The Residual activity was 91 % of control.

**Q.** What about the Residual activity (PKCnu; 1.0E-05 M) of the same molecule?
**A.** Its Residual activity is 65 % of control.

**Q.** And the Residual activity (PKCnu; 1.0E-06 M)?
**A.** The Residual activity was 88 % of control.

**Q.** What about the Residual activity (S6K; 1.0E-05 M) of the same molecule?
**A.** The Residual activity was 92 % of control.

**Q.** And the Residual activity (S6K; 1.0E-06 M)?
**A.** Its Residual activity is 102 % of control.

**Q.** And the Residual activity (TSSK1; 1.0E-05 M)?
**A.** The Residual activity was 105 % of control.

**Q.** What about the Residual activity (TSSK1; 1.0E-06 M) of the same molecule?
**A.** Its Residual activity is 112 % of control.

**Q.** And the Residual activity (TYRO3; 1.0E-05 M)?
**A.** Its Residual activity is 77 % of control.

**Q.** What about the Residual activity (TYRO3; 1.0E-06 M) of the same molecule?
**A.** The Residual activity was 96 % of control.
